Measured values reported in US4647586A, “Pharmaceutical oil-in-water type micro-emulsion” (priority 1984, dated 1987).
Entries after “also recorded” stand apart in the source; their conditions may differ.

Experiments:
[1] = system: Carrageenin-induced paw edema; assay: Carrageenin-induced paw edema in rats [Test 1]; assay type: in vivo, Wistar strain male rats
Description: A-1: Effect of inhibiting carrageenin-induced paw edema
(a) Experimental animals: Wistar strain male rats (body weight 160-220 g), 7 per group.
As a control drug, an aqueous solution of sodium 4-biphenylylacetate was used.
The volume of the left hind paw of each rat was measured with a plethysmometer (supplied by Ugo Basile Company). A 1% carrageenin solution as an inflammation inducer was injected subcutaneously into the left hind paw of each rat to induce paw edema. The volume of the paw of the rat was measured before the administration of carrageenin and every hour after the administration up to 6 hours. […] The test drugs were intravenously administered 2 hours after the injection of carrageenin. The edema inhibition rate were calculated by the following equation. [formula]
Ec: the volume of edema of the control group to which only the solvent was administered at each time (average value)
Et: the volume of edema in the drug-administered group at each time (average value)

[2] = system: Carrageenin-induced paw edema; assay: Carrageenin-induced paw edema in rats [Test 2]; assay type: in vivo, SD-strain male rats
Description: (a) Experimental animals: SD-strain male rats (120-180 g).
A micro-emulsion containing ethyl 4-biphenylylacetate prepared as in Examples 11, 12, 13 and 14 given hereinafter was administered at a dose of 5 ml per kg of the animals. Venolipid® (Morishita Pharmaceutical Co., Ltd.) was used as a vehicle control. As control drugs, a solution or suspension of ethyl 4-biphenylylacetate in physiological saline containing 0.5% Cremophor EL® (Sigma Chemical Company, a solubilizing agent), 0.2% of polyethylene glycol 400 and 10% of dimethyl sulfoxide, a physiological saline solution of sodium 4-biphenylylacetate and a physiological saline solution of Aspirin DL-lysine [Venopirin®, Green Cross Co.] were used. As the vehicle control of the control drugs, the above solvents were used.
A 1% carrageenin solution in physiological saline was injected subcutaneously in an amount of 0.05 ml into the planter surface of the left hind paw of each rat via a 25 gauge needle fitted to a 0.25 ml syringe. One hour after carrageenin injection, the rats were randomized on the basis of the edema volume, and intravenous administration of the drugs and vehicles followed immediately. The volume of the left hind paw was measured by a plethysmometer (Ugo Basile) prior to the injection of the carrageenin solution and at 2, 3, 4, 5 and 6 hours after the carrageenin injection. As the volume of edema, an increase in the paw volume was taken.
The inhibition percents were calculated in accordance with the same calculation formula as in Test 1.

[3] = system: Adjuvant-induced polyarthritis; assay: Adjuvant-induced polyarthritis in rats, adjuvant-injected paw [Test 2]; assay type: in vivo, SD-strain female rats
Description: (a) Experimental animals: SD-strain famale rats 140-180g).
(b) Test drugs: The same as in A-1 [Test 2].
Rats were anesthetized with ether inhalation, and 0.6 mg of Mycobacterium butyricum suspended in 0.1 ml of white paraffin oil was immediately injected intradermally into the planter surface of the left hind paw of each rat via a 27 gauge needle fitted to a 0.5 ml syringe (day 0). On the 14th day after the adjuvant injection, arthritis-established rats selected by development of secondary lesions were used. Volumes of both hind paws in arthritis-established rats were measured by a plethysmometer (UGO BASILE), and the rats were randomized on the basis of the edema volume in the adjuvant-injected paw. Once daily, beginning on the 14th day up to the 18th day, drugs and vehicles were administered intravenously. Measurements of both paw volumes were performed every day from the 15th day up to the 18th day, and on the 21st day and the 24th day. The inhibition percent were calculated in accordance with the calculation formula as in [Test 1] of A-1.

[4] = Toxicity test, single tail vein administration, 3 days observation; assay type: in vivo, Charles River-strain SD male rats; conditions: rat, in vivo, iv; read-out: Doses with no change in general symptoms and autopsy
Description: (§1) Charles River-strain SD male rats (6 weeks old; body weight 160-170 g), 5 per group, were used. […] The doses were 50, 100, 200 and 400 mg/kg. As a control, an aqueous solution of sodium 4-biphenylylacetate was administered.

[5] = system: Charles River-strain SD male rats; assay: as above; assay type: in vivo
Description: as §1

[6] = Distribution to the tissue; conditions: 10 mg/kg tail vein, as 4-biphenylylacetic acid
Description: (a) Experimental animals: Wistar-strain male rats (body weight 60-220 g), 6 per group.
The rats were periodically killed, and the major organs were extracted. The concentration of the drug in the tissues were measured by the conventional HPLC method.

O=C([O-])Cc1ccc(-c2ccccc2)cc1.[Na+]
Edema inhibitory effect (inhibition rate, %) ([1]; 2.5 mg/kg i.v. as 4-biphenylylacetic acid, 2 hours after carrageenin (time of dosing)): 0%
Edema inhibitory effect (inhibition rate, %) ([1]; 2.5 mg/kg i.v. as 4-biphenylylacetic acid, 3 hours after carrageenin): 8.4%
Edema inhibitory effect (inhibition rate, %) ([1]; 2.5 mg/kg i.v. as 4-biphenylylacetic acid, 4 hours after carrageenin): 13.2%
Edema inhibitory effect (inhibition rate, %) ([1]; 2.5 mg/kg i.v. as 4-biphenylylacetic acid, 5 hours after carrageenin): 17.1%
Edema inhibitory effect (inhibition rate, %) ([1]; 2.5 mg/kg i.v. as 4-biphenylylacetic acid, 6 hours after carrageenin): 19.8%
Edema inhibitory effect (inhibition rate, %) ([1]; 5.0 mg/kg i.v. as 4-biphenylylacetic acid, 2 hours after carrageenin (time of dosing)): 0%
Edema inhibitory effect (inhibition rate, %) ([1]; 5.0 mg/kg i.v. as 4-biphenylylacetic acid, 3 hours after carrageenin): 9.5%
Edema inhibitory effect (inhibition rate, %) ([1]; 5.0 mg/kg i.v. as 4-biphenylylacetic acid, 4 hours after carrageenin): 15.1%
Edema inhibitory effect (inhibition rate, %) ([1]; 5.0 mg/kg i.v. as 4-biphenylylacetic acid, 5 hours after carrageenin): 17.4%
Edema inhibitory effect (inhibition rate, %) ([1]; 5.0 mg/kg i.v. as 4-biphenylylacetic acid, 6 hours after carrageenin): 20.8%
ED20 ([1]; Rattus norvegicus, iv, 2 h, read-out: ED20 (20% edema inhibitory effect)): 8.5 mg/kg
Edema inhibitive effect versus the micro-emulsions ([1]; i.v.): less effect
Inhibition (%) ([2]; 1.25 mg/kg i.v. as 4-biphenylylacetic acid, 2 h after carrageenin): 6.6%
Inhibition (%) ([2]; 1.25 mg/kg i.v. as 4-biphenylylacetic acid, 3 h after carrageenin): 0%
Inhibition (%) ([2]; 1.25 mg/kg i.v. as 4-biphenylylacetic acid, 4 h after carrageenin): 8.5%
Inhibition (%) ([2]; 1.25 mg/kg i.v. as 4-biphenylylacetic acid, 5 h after carrageenin): 5.2%
Inhibition (%) ([2]; 1.25 mg/kg i.v. as 4-biphenylylacetic acid, 6 h after carrageenin): 6.1%
Inhibition (%) ([2]; 2.5 mg/kg i.v. as 4-biphenylylacetic acid, 2 h after carrageenin): 19,7%
Inhibition (%) ([2]; 2.5 mg/kg i.v. as 4-biphenylylacetic acid, 3 h after carrageenin): 11.7%
Inhibition (%) ([2]; 2.5 mg/kg i.v. as 4-biphenylylacetic acid, 4 h after carrageenin): 18.6%
Inhibition (%) ([2]; 2.5 mg/kg i.v. as 4-biphenylylacetic acid, 5 h after carrageenin): 20.7%
Inhibition (%) ([2]; 2.5 mg/kg i.v. as 4-biphenylylacetic acid, 6 h after carrageenin): 10.2%
Inhibition (%) ([2]; 5.0 mg/kg i.v. as 4-biphenylylacetic acid, 2 h after carrageenin): 9.8%
Inhibition (%) ([2]; 5.0 mg/kg i.v. as 4-biphenylylacetic acid, 3 h after carrageenin): 6.6%
Inhibition (%) ([2]; 5.0 mg/kg i.v. as 4-biphenylylacetic acid, 4 h after carrageenin): 20.3%
Inhibition (%) ([2]; 5.0 mg/kg i.v. as 4-biphenylylacetic acid, 5 h after carrageenin): 19.0%
Inhibition (%) ([2]; 5.0 mg/kg i.v. as 4-biphenylylacetic acid, 6 h after carrageenin): 30.6%
Inhibition (%) ([2]; 10.0 mg/kg i.v. as 4-biphenylylacetic acid, 2 h after carrageenin): 23.0%
Inhibition (%) ([2]; 10.0 mg/kg i.v. as 4-biphenylylacetic acid, 3 h after carrageenin): 28.3%
Inhibition (%) ([2]; 10.0 mg/kg i.v. as 4-biphenylylacetic acid, 4 h after carrageenin): 35.6%
Inhibition (%) ([2]; 10.0 mg/kg i.v. as 4-biphenylylacetic acid, 5 h after carrageenin): 29.3%
Inhibition (%) ([2]; 10.0 mg/kg i.v. as 4-biphenylylacetic acid, 6 h after carrageenin): 30.6%
ED30 ([2]; Rattus norvegicus, iv, read-out: ED30 (dose required to cause a 30% inhibition of edema volume)): 10.5 mg/kg
Inhibition (%) ([3]; 1.25 mg/kg/day i.v. as 4-biphenylylacetic acid, day 15): -1.8%
Inhibition (%) ([3]; 1.25 mg/kg/day i.v. as 4-biphenylylacetic acid, day 16): 1.2%
Inhibition (%) ([3]; 1.25 mg/kg/day i.v. as 4-biphenylylacetic acid, day 17): 7.9%
Inhibition (%) ([3]; 1.25 mg/kg/day i.v. as 4-biphenylylacetic acid, day 18): 3.9%
Inhibition (%) ([3]; 1.25 mg/kg/day i.v. as 4-biphenylylacetic acid, day 21): -7.5%
Inhibition (%) ([3]; 1.25 mg/kg/day i.v. as 4-biphenylylacetic acid, day 24): -14.1%
Inhibition (%) ([3]; 2.5 mg/kg/day i.v. as 4-biphenylylacetic acid, day 15): -4.2%
Inhibition (%) ([3]; 2.5 mg/kg/day i.v. as 4-biphenylylacetic acid, day 16): 1.5%
Inhibition (%) ([3]; 2.5 mg/kg/day i.v. as 4-biphenylylacetic acid, day 17): 1.9%
Inhibition (%) ([3]; 2.5 mg/kg/day i.v. as 4-biphenylylacetic acid, day 18): -3.9%
Inhibition (%) ([3]; 2.5 mg/kg/day i.v. as 4-biphenylylacetic acid, day 21): -15.7%
Inhibition (%) ([3]; 2.5 mg/kg/day i.v. as 4-biphenylylacetic acid, day 24): -29.7%
Inhibition (%) ([3]; 5.0 mg/kg/day i.v. as 4-biphenylylacetic acid, day 15): 7.3%
Inhibition (%) ([3]; 5.0 mg/kg/day i.v. as 4-biphenylylacetic acid, day 16): 12.9%
Inhibition (%) ([3]; 5.0 mg/kg/day i.v. as 4-biphenylylacetic acid, day 17): 17.9%
Inhibition (%) ([3]; 5.0 mg/kg/day i.v. as 4-biphenylylacetic acid, day 18): 15.6%
Inhibition (%) ([3]; 5.0 mg/kg/day i.v. as 4-biphenylylacetic acid, day 21): 9.2%
Inhibition (%) ([3]; 5.0 mg/kg/day i.v. as 4-biphenylylacetic acid, day 24): 2.8%
Inhibition (%) ([3]; 10.0 mg/kg/day i.v. as 4-biphenylylacetic acid, day 15): 8.2%
Inhibition (%) ([3]; 10.0 mg/kg/day i.v. as 4-biphenylylacetic acid, day 16): 9.5%
Inhibition (%) ([3]; 10.0 mg/kg/day i.v. as 4-biphenylylacetic acid, day 17): 17.9%
Inhibition (%) ([3]; 10.0 mg/kg/day i.v. as 4-biphenylylacetic acid, day 18): 16.6%
Inhibition (%) ([3]; 10.0 mg/kg/day i.v. as 4-biphenylylacetic acid, day 21): 1.3%
Inhibition (%) ([3]; 10.0 mg/kg/day i.v. as 4-biphenylylacetic acid, day 24): -0.7%
ED20 ([3]; Rattus norvegicus, iv, read-out: ED20 (dose required to cause a 20% inhibition of adjuvant-injected paw volume)): 14.3 mg/kg
NOAEL at 72 h [4]: ≥ 50 mg/kg
Findings: autopsy ([5]; 50 mg/kg i.v.): No change
Findings: general symptoms ([5]; 50 mg/kg i.v.): No change
Number of the dead ([5]; 50 mg/kg i.v. as 4-biphenylylacetic acid): 0/5
Findings: general symptoms (spontaneous motion) ([5]; 100 mg/kg i.v.): motion decreased
Number of the dead ([5]; 100 mg/kg i.v. as 4-biphenylylacetic acid): 0/5
Findings: general symptoms ([5]; 200 mg/kg i.v.): tarry feces
Number of the dead ([5]; 200 mg/kg i.v. as 4-biphenylylacetic acid): 3/5
Number of the dead ([5]; 400 mg/kg i.v. as 4-biphenylylacetic acid): 3/5
Findings: autopsy ([5]; at least 100 mg/kg i.v.): Peptic ulcer occurred; also recorded: intestinal adherence
Findings: general symptoms ([5]; at least 100 mg/kg i.v.): Body weight increase inhibition
Findings: general symptoms ([5]; at least 200 mg/kg i.v.): pallor
Doses at which changes occurred ([5]; rat, in vivo): more than 100 mg/kg
Tissue concentration at 30 seconds after administration [6]: concentrations above those at which they showed a pharmacological activity
